In general, IC50 refers to the concentration at which inhibition is half-maximal.

The experiment deals with T1, human ASK1 (Homo sapiens, UniProt Q99683).
T1 construct: a 2.2 kb DNA fragment containing an ASK1 gene was recovered from the gel; made in house; host or cells: Sf-21 insect cells, recombinant baculovirus (pFASTBAC1, Bac-to-Bac)
T1 sequence (Q99683 649-1374 limits assumed): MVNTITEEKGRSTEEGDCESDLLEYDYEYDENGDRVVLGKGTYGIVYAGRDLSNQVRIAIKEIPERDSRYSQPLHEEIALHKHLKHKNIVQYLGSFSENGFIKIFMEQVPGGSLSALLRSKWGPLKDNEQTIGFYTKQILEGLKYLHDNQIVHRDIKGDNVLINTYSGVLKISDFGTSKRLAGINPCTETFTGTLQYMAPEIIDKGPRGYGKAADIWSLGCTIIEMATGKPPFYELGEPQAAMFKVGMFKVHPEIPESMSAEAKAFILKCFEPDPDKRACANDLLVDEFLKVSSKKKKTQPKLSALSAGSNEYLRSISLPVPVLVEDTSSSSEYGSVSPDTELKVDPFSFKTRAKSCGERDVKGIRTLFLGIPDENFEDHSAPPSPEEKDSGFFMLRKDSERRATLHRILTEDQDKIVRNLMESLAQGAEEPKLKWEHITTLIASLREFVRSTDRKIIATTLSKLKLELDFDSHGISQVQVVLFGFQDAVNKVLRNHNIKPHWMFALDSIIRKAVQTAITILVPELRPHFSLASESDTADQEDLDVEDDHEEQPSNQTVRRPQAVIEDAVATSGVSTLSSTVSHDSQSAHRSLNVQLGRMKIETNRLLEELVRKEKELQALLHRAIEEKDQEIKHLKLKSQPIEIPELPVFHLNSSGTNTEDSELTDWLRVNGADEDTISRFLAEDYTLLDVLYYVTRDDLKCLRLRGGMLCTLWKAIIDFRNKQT
Description: Scintillation assay measuring inhibition of ASK1 phosphorylation of myelin basic protein. Conditions: active ASK1 protein 30 ng, myelin basic protein 1 μg, [γ-32P]ATP, room temperature 30 min; values given as ranges; read-out: Enzyme Activity IC50. It counts as biochemical. As to the method:
Cloning of cDNA encoding human ASK1 was conducted by PCR using primers, 5′-[…] AGAGAAGGGGA-3′ (SEQ ID NO: 1) and 5′-[…]-3′ (SEQ ID NO: 2), from human heart cDNA library (Becton, Dickinson and Company). The PCR product was subjected to agarose gel (1%) electrophoresis, a 2.2 kb DNA fragment containing an ASK1 gene was recovered from the gel, and then digested with restriction enzymes, NotI and SalI, and inserted into a plasmid pFASTBAC1 (Invitrogen) to prepare a plasmid pFB-ASK1. The insert was verified by sequencing. Recombinant baculovirus was prepared according to the procedure of the Bac-to-Bac baculovirus expression system (Invitrogen).
Sf-21 cells were seeded to achieve 1×10^6 cells/mL in 100 mL of Sf-900 II SFM medium (Invitrogen) which contains 10% fetal calf serum and then cultured at 27° C. for 24 hrs. To express ASK1 in cells, 0.15 mL of the recombinant baculovirus virus stock was added to cells, and the then cultured for 60 hrs. The cells were separated from the culture solution by centrifugation at 3000 rpm for 10 min and washed once with PBS. The cells were suspended in 10 mL of lysis buffer (25 mM HEPES (pH 7.5), 1% Triton X, 130 mM NaCl, 1 mM EDTA, 1 mM DTT, 25 mM β-glycerophosphate, Protease inhibitor complete (Roche), 1 mM sodium orthovanadate) and ruptured by four times of treatment with a homogenizer (POLYTRON) at 20000 rpm for 30 seconds. Active ASK1 protein was purified from a supernatant obtained by centrifugal separation at 40000 rpm for 45 min using anti-FLAG M2 Affinity Gel (Sigma).
The test compounds (2.5 μl) dissolved in DMSO were added to wells containing 37.5 μl of the reaction solution (25 mM HEPES (pH 7.5), 10 mM magnesium acetate, 1 mM DTT) including 30 ng of active ASK1 protein and 1 μg of myelin basic protein (Wako), and incubated at room temperature for 5 min. To start the reaction, 10 μL of ATP solution (2.5 μM ATP, 0.1 μCi [γ-^32P]ATP) was added to wells. After incubating at room temperature for 30 min, the reaction was terminated by adding 50 μl of 20% TCA solution. The reaction solution was incubated at 4° C. for 30 min and an acid-insoluble fraction was transferred onto a GF/C filter (Packard) with Cell Harvester (Packard), and washed with 250 mM phosphoric acid. After drying at 45° C. for 60 min., 40 μL of Microscint 0 (Packard) was added and the radioactivity was measured with TopCount (Packard). The concentrations (IC50 value) of the test compounds necessary for 50% inhibition of kinase activity were calculated by PRISM 3.0 (Graphpad Software).
The enzyme activities of selected compounds of the present invention against ASK1 were determined using the assay disclosed in Example A and B. The resulted pIC50 values are reported in Table 1.
For `Cc1cc2nc(NC(=O)c3ccc(C(C)(C)C)cc3)cc(-c3ccc(F)c(CO)c3)n2n1` [Compound 4, 4-tert-butyl-N-(7-(4-fluoro-3-(hydroxymethyl)phenyl)-2-methylpyrazolo[1,5-a]pyrimidin-5-yl)benzamide], the IC50 was below 100 nM. With `CC(C)(O)c1ccc(C(=O)Nc2cc(N3CCN(S(C)(=O)=O)CC3)n3nccc3n2)cc1` [Compound 90, 4-(2-hydroxypropan-2-yl)-N-(7-(4-(methylsulfonyl)piperazin-1-yl)pyrazolo[1,5-a]pyrimidin-5-yl)benzamide] the figure was 100 to 1000 nM; with `Cc1cc2nc(NC(=O)c3ccc(C(C)(C)O)cc3)cc(-c3ccccc3)n2n1` [Compound 202, 4-(2-hydroxypropan-2-yl)-N-(2-methyl-7-phenylpyrazolo[1,5-a]pyrimidin-5-yl)benzamide], below 100 nM; with `Cc1cc2nc(NC(=O)c3ccc(C(C)(C)O)nc3)cc(-c3ccccc3)n2n1` [Compound 315, 6-(2-hydroxypropan-2-yl)-N-(2-methyl-7-phenylpyrazolo[1,5-a]pyrimidin-5-yl)nicotinamide], 100 to 1000 nM. With `COc1cccc(-c2cc(NC(=O)c3ccc(C(C)(C)C)cc3)nc3ccnn23)c1` [Compound 15, 4-tert-Butyl-N-(7-(3-methoxyphenyl)pyrazolo[1,5-a]pyrimidin-5-yl)benzamide] the figure was below 100 nM; with `CC(C)(C)c1ccc(C(=O)Nc2cc(N3CCc4ccccc4C3)n3nccc3n2)cc1` [Compound 66, 4-tert-butyl-N-(7-(3,4-dihydroisoquinolin-2(1H)-yl)pyrazolo[1,5-a]pyrimidin-5-yl)benzamide], below 100 nM; with `CC(C)(O)c1ccc(C(=O)Nc2cc(N3CCn4cnnc4C3)n3nccc3n2)cc1` [Compound 91, N-(7-(5,6-dihydro-[1,2,4]triazolo[4,3-a]pyrazin-7(8H)-yl)pyrazolo[1,5-a]pyrimidin-5-yl)-4-(2-hydroxypropan-2-yl)benzamide], above 1000 nM.

On to `CC(C)(O)c1ccc(C(=O)Nc2cc(N3CCC[C@H]3CO)n3nccc3n2)cc1` [Compound 67, (S)—N-(7-(2-(hydroxymethyl)pyrrolidin-1-yl)pyrazolo[1,5-a]pyrimidin-5-yl)-4-(2-hydroxypropan-2-yl)benzamide], for which the half-inhibitory concentration (IC50) fell in the range of 100 to 1000 nM. As for `CC(C)(C)c1ccc(C(=O)Nc2cc(-c3ccc(S(C)(=O)=O)cc3)n3nccc3n2)cc1` [Compound 8, 4-tert-butyl-N-(7-(4-(methylsulfonyl)phenyl)pyrazolo[1,5-a]pyrimidin-5-yl)benzamide], the IC50 is above 1000 nM. With `CC(C)(O)c1ccc(C(=O)Nc2cc(N3CCNC(=O)CC3)n3nccc3n2)cc1` [Compound 93, 4-(2-hydroxypropan-2-yl)-N-(7-(5-oxo-1,4-diazepan-1-yl)pyrazolo[1,5-a]pyrimidin-5-yl)benzamide] the figure was 100 to 1000 nM; with `CC(C)(C)c1ccc(C(=O)Nc2cc(N3CCC(O)CC3)n3nccc3n2)cc1` [Compound 112, 4-tert-butyl-N-(7-(4-hydroxypiperidin-1-yl)pyrazolo[1,5-a]pyrimidin-5-yl)benzamide], below 100 nM; with `CC(C)(O)c1ccc(C(=O)Nc2cc(N3CCc4ccccc4C3)n3nccc3n2)cc1` [Compound 64, N-(7-(3,4-dihydroisoquinolin-2(1H)-yl)pyrazolo[1,5-a]pyrimidin-5-yl)-4-(2-hydroxypropan-2-yl)benzamide], below 100 nM. Consider `CC(C)(O)c1ccc(C(=O)Nc2cc(-c3cccc(CC#N)c3)n3nccc3n2)cc1` [Compound 21, N-(7-(3-(cyanomethyl)phenyl)pyrazolo[1,5-a]pyrimidin-5-yl)-4-(2-hydroxypropan-2-yl)benzamide], for which the IC50 is 100 to 1000 nM.

As for `Cc1cc2nc(NC(=O)c3ccc(C(C)(C)CO)cc3)cc(N3CC(O)C3)n2n1` [Compound 97, 4-(1-hydroxy-2-methylpropan-2-yl)-N-(7-(3-hydroxyazetidin-1-yl)-2-methylpyrazolo[1,5-a]pyrimidin-5-yl)benzamide], the IC50 lay in the range of 100 to 1000 nM. With `CC(=O)c1cccc(-c2cc(NC(=O)c3ccc(C(C)(C)C)cc3)nc3ccnn23)c1` [Compound 12, N-(7-(3-Acetylphenyl)pyrazolo[1,5-a]pyrimidin-5-yl)-4-tert-butylbenzamide] the figure was above 1000 nM. With `Cc1cc2nc(NC(=O)c3ccc(C(C)(C)C)cc3)cc(-c3cccc(CCCO)c3)n2n1` [Compound 3, 4-(tert-butyl)-N-(7-(3-(3-hydroxypropyl)phenyl)-2-methylpyrazolo[1,5-a]pyrimidin-5-yl)benzamide], the IC50 was below 100 nM. Then `CC(C)(O)c1ccc(C(=O)Nc2cc(N3CCC[C@@H](O)C3)n3nccc3n2)cc1` [Compound 76, (R)—N-(7-(3-hydroxypiperidin-1-yl)pyrazolo[1,5-a]pyrimidin-5-yl)-4-(2-hydroxypropan-2-yl)benzamide], with 100 to 1000 nM. For the compound `CC(C)(C)c1ccc(C(=O)Nc2cc(N3CCC[C@@H](O)C3)n3nccc3n2)cc1` [Compound 77, (R)-4-tert-butyl-N-(7-(3-hydroxypiperidin-1-yl)pyrazolo[1,5-a]pyrimidin-5-yl)benzamide], the IC50 is below 100 nM. Consider `CC(C)(O)c1ccc(C(=O)Nc2cc(N3CCC[C@H](C(=O)O)C3)n3nccc3n2)cc1` [Compound 86, (S)-1-(5-(4-(2-hydroxypropan-2-yl)benzamido)pyrazolo[1,5-a]pyrimidin-7-yl)piperidine-3-carboxylic acid], for which the IC50 was above 1000 nM.

Regarding `Cc1cc2nc(NC(=O)c3ccc(C(C)(C)O)cc3)cc(N3CC[C@@H](O)C3)n2n1` [Compound 203, (R)-4-(2-hydroxypropan-2-yl)-N-(7-(3-hydroxypyrrolidin-1-yl)-2-methylpyrazolo[1,5-a]pyrimidin-5-yl)benzamide], the IC50 was below 100 nM. Then `Cc1cc2nc(NC(=O)[C@@H]3C[C@H]3c3ccccc3)cc(-c3ccccc3)n2n1` [Compound 347, (1R,2R)—N-(2-Methyl-7-phenylpyrazolo[1,5-a]pyrimidin-5-yl)-2-phenylcyclopropanecarboxamide], with below 100 nM.

As to `Cc1cc2nc(NC(=O)[C@@H]3C[C@H]3c3ccc(F)cc3)cc(N3CCC(NC(N)=O)CC3)n2n1` (racemic) [Compound 362, 2-(4-fluorophenyl)-N-(2-methyl-7-(4-ureidopiperidin-1-yl)pyrazolo[1,5-a]pyrimidin-5-yl)cyclopropanecarboxamide], the IC50 is below 100 nM. Then `COc1ccc(-c2cc(NC(=O)c3ccc(C(C)(C)C)cc3)nc3ccnn23)cc1` [Compound 9, 4-tert-Butyl-N-(7-(4-methoxyphenyl)pyrazolo[1,5-a]pyrimidin-5-yl)benzamide], with below 100 nM.

For `CC(C)(C)c1ccc(C(=O)Nc2cc(-c3cccc(CCCO)c3)n3nccc3n2)cc1` [Compound 11, 4-tert-Butyl-N-(7-(3-(3-hydroxypropyl)phenyl)pyrazolo[1,5-a]pyrimidin-5-yl)benzamide], the IC50 was below 100 nM.

(Values after patent US8921358B2, “Apoptosis signal-regulating kinase 1 inhibitors” (Takeda Pharmaceutical Company Limited, priority 2008, dated 2014).)
